In the assay the target is human RIP1 kinase domain (2-375) (Homo sapiens (Human), UniProt Q13546). The assay can be described thus: biochemical. The format is biochemical. The method, boiled down: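 Ki^app comes from Morrison tight-binding fits of fractional activity versus compound concentration. Activity was read as ADP production, via tracer displacement lowering fluorescence polarization (633 nm laser). Conditions: 2 h, 50 nM insect-cell-expressed enzyme, 50 uM ATP, 30 mM MgCl2, 1 mM DTT, 0.5% DMSO, pH 7.5 Hepes.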
Sequence of human RIP1 kinase domain (2-375) (Q13546 2-375): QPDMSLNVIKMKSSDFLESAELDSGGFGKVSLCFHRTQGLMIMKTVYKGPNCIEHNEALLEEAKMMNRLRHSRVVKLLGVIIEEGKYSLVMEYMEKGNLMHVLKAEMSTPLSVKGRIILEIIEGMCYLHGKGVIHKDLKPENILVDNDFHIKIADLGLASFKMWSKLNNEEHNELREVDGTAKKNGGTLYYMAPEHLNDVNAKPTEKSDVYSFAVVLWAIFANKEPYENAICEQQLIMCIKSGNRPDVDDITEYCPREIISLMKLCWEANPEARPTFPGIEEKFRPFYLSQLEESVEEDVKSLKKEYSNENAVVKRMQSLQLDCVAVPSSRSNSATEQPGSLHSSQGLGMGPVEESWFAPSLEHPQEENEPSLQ

Setting [1] is: tight-binding apparent inhibition constant, human RIP1 kinase domain (2-375) 50 nM, 50 uM ATP, 2 hours, read-out: Ki.
Where [2] appears, read: human RIP1 kinase domain (2-375), Transcreener ADP assay, 50 uM ATP, 2 hours incubation, read-out: RIP1 Ki.
Setting [3] is: Table 5, apparent Ki (Morrison tight-binding fit), 50 nM RIP1 kinase domain, 50 uM ATP, 2 hours incubation, read-out: Ki.
Where [4] appears, read: Table 1, apparent Ki (Morrison tight-binding fit), 50 nM RIP1 kinase domain, 50 uM ATP, 2 hours incubation, read-out: RIP1 Ki.

SMILES strings stand for the structures. Read-outs that look alike come from different tables or passages of the source.

As to `CN1C(=O)[C@@H](NC(=O)c2nc3cccc(-c4ccccc4F)n3n2)CCn2nccc21` [Example 386, (S)-5-(2-fluorophenyl)-N-(4-methyl-5-oxo-5,6,7,8-tetrahydro-4H-pyrazolo[1,5-a][1,3]diazepin-6-yl)-[1,2,4]triazolo[1,5-a]pyridine-2-carboxamide], under setting [1], the Ki came out at 14.8 nM.

Regarding `Cc1nn2c(c1C)N(C)C(=O)[C@@H](NC(=O)c1ncn(Cc3ccc(F)c(F)c3)n1)CC2` [Example 273, (S)-1-(3,4-difluorobenzyl)-N-(2,3,4-trimethyl-5-oxo-5,6,7,8-tetrahydro-4H-pyrazolo[1,5-a][1,3]diazepin-6-yl)-1H-1,2,4-triazole-3-carboxamide], the Ki under setting [2] was 46.7 nM. With `CN1C(=O)C(NC(=O)c2ncn(Cc3ccccc3)n2)CCn2nc(C(C)(C)F)cc21` (single isomer, unassigned) [Example 370, 1-benzyl-N-[2-(1-fluoro-1-methyl-ethyl)-4-methyl-5-oxo-7,8-dihydro-6H-pyrazolo[1,5-a][1,3]diazepin-6-yl]-1,2,4-triazole-3-carboxamide], the Ki under setting [1] was 555 nM. `CN1C(=O)[C@@H](NC(=O)c2ncn(Cc3ccc(F)cc3)n2)CCn2nc([C@@H]3CC3(F)F)cc21` [Example 323, N—((S)-2-((S)-2,2-difluorocyclopropyl)-4-methyl-5-oxo-5,6,7,8-tetrahydro-4H-pyrazolo[1,5-a][1,3]diazepin-6-yl)-1-(4-fluorobenzyl)-1H-1,2,4-triazole-3-carboxamide]: the Ki under setting [2] came out at 57.8 nM. In the case of `CN1C(=O)[C@@H](NC(=O)c2n[nH]c3c2C[C@@H](C(F)(F)F)CC3)COc2c1cnn2C` [Example 188, (S)—N—((S)-1,4-dimethyl-5-oxo-4,5,6,7-tetrahydro-1H-pyrazolo[3,4-b][1,4]oxazepin-6-yl)-5-(trifluoromethyl)-4,5,6,7-tetrahydro-1H-indazole-3-carboxamide], the Ki (human RIP1 kinase domain (2-375), 50 uM ATP, 2 hours incubation, Transcreener ADP assay, read-out: RIP1 Ki) came to 4500 nM. `CN1C(=O)[C@@H](NC(=O)c2ncn(Cc3ccccc3)n2)CCn2nc(C3CNC3)cc21` [Example 754, 1-benzyl-N-[(6S)-2-(azetidin-3-yl)-4-methyl-5-oxo-7,8-dihydro-6H-pyrazolo[1,5-a][1,3]diazepin-6-yl]-1,2,4-triazole-3-carboxamide]: the Ki (Ki) came out at 411 nM. As for `Cc1cc2n(n1)CC[C@H](NC(=O)c1ncn(Cc3ccccc3)n1)C(=O)N2C` [Example C, (S)-1-benzyl-N-(2,4-dimethyl-5-oxo-5,6,7,8-tetrahydro-4H-pyrazolo[1,5-a][1,3]diazepin-6-yl)-1H-1,2,4-triazole-3-carboxamide], the Ki (scale-up batches (Examples A-C), apparent Ki (Morrison tight-binding fit), 50 nM RIP1 kinase domain, 50 uM ATP, read-out: Ki) was determined as 22 nM. Consider `Cc1cc2n(n1)CC[C@H](NC(=O)c1nc3n(n1)[C@@H](c1ccccc1)CC3)C(=O)N2C` [Example 615, (5R)-5-phenyl-N-[(6S)-2,4-dimethyl-5-oxo-7,8-dihydro-6H-pyrazolo[1,5-a][1,3]diazepin-6-yl]-6,7-dihydro-5H-pyrrolo[1,2-b][1,2,4]triazole-2-carboxamide], for which the Ki under setting [1] stood at 11 nM. On to `CN1C(=O)[C@@H](NC(=O)c2cc3c(-c4ccccc4)cccn3n2)COc2ccccc21` [Example 713, 4-phenyl-N-[(3S)-5-methyl-4-oxo-2,3-dihydro-1,5-benzoxazepin-3-yl]pyrazolo[1,5-a]pyridine-2-carboxamide], for which the Ki under setting [3] was 5 nM. Regarding `CN1C(=O)[C@@H](NC(=O)c2nc3n(n2)[C@H](c2ccccc2F)CC3)CCn2nccc21` [Example 466, (S)-5-(2-fluorophenyl)-N—((S)-4-methyl-5-oxo-5,6,7,8-tetrahydro-4H-pyrazolo[1,5-a][1,3]diazepin-6-yl)-6,7-dihydro-5H-pyrrolo[1,2-b][1,2,4]triazole-2-carboxamide], the Ki under setting [1] came to 803 nM. In the case of `Cc1cc2n(n1)CC[C@@H](NC(=O)c1nnc(Cc3ccccc3)[nH]1)C(=O)N2C` [Example 241, (R)-5-benzyl-N-(2,4-dimethyl-5-oxo-5,6,7,8-tetrahydro-4H-pyrazolo[1,5-a][1,3]diazepin-6-yl)-4H-1,2,4-triazole-3-carboxamide], under setting [2], the Ki is 8900 nM. Same read-out and setting: next, `CN1C(=O)[C@@H](NC(=O)c2cc(C3(O)CCCC3)ccn2)COc2ccccc21` [Example 328, (S)-4-(1-hydroxycyclopentyl)-N-(5-methyl-4-oxo-2,3,4,5-tetrahydrobenzo[b][1,4]oxazepin-3-yl)picolinamide]: 990 nM.

Consider `Cc1cc2n(n1)CC[C@H](NC(=O)c1nc3n(n1)CC[C@H]3c1ccccc1)C(=O)N2C` (racemic) [Example 575, (7S)-7-phenyl-N-[(6S)-2,4-dimethyl-5-oxo-7,8-dihydro-6H-pyrazolo[1,5-a][1,3]diazepin-6-yl]-6,7-dihydro-5H-pyrrolo[1,2-b][1,2,4]triazole-2-carboxamide], for which the Ki under setting [1] came out at 28 nM. The same measure, in the same setting: then `CC(O)c1cc2n(n1)CC[C@H](NC(=O)c1ncn(Cc3ccccc3)n1)C(=O)N2C` (single isomer, unassigned) [Example 368], with 154 nM; and `CN1C(=O)[C@@H](NC(=O)c2ncn(C[C@H]3C[C@H](C)C3)n2)CCn2nccc21` [Example 497, N—((S)-4-methyl-5-oxo-5,6,7,8-tetrahydro-4H-pyrazolo[1,5-a][1,3]diazepin-6-yl)-1-(((1R,3S)-3-methylcyclobutyl)methyl)-1H-1,2,4-triazole-3-carboxamide], with 41 nM. With `CN1C(=O)[C@@H](NC(=O)c2nc3n(n2)[C@@H](c2ccccc2)CCC3)COc2ccccc21` (single isomer, unassigned) [Example 790], under setting [3], the Ki came to 149 nM.

In the case of `CN1C(=O)[C@@H](NC(=O)c2cc3n(n2)CCCN(c2ccccc2)C3)COc2ccccc21` [Example 6, N-[(3S)-5-methyl-4-oxo-2,3-dihydro-1,5-benzoxazepin-3-yl]-5-phenyl-4,6,7,8-tetrahydro pyrazolo[1,5-a][1,4]diazepine-2-carboxamide], the Ki under setting [4] stood at 375 nM. Turning to `CN1C(=O)C(NC(=O)c2ncn(CC3CCC3)n2)CCn2nc(C3CC3)cc21` (stereo not drawn) [Example 256, 1-(cyclobutylmethyl)-N-(2-cyclopropyl-4-methyl-5-oxo-5,6,7,8-tetrahydro-4H-pyrazolo[1,5-a][1,3]diazepin-6-yl)-1H-1,2,4-triazole-3-carboxamide], under setting [2], the Ki was 210 nM. Take `Cc1cc2n(n1)CCC(NC(=O)c1ncn(CCC(F)(F)F)n1)C(=O)N2C` (stereo not drawn) [Example 250, N-(2,4-dimethyl-5-oxo-5,6,7,8-tetrahydro-4H-pyrazolo[1,5-a][1,3]diazepin-6-yl)-1-(3,3,3-trifluoropropyl)-1H-1,2,4-triazole-3-carboxamide]: the Ki under setting [2] came out at 1000 nM. Turning to `CCC1CCc2n[nH]c(C(=O)N[C@H]3COc4ccccc4N(C)C3=O)c2C1` (stereo partly drawn) [Example 74, 5-ethyl-N-((S)-5-methyl-4-oxo-2,3,4,5-tetrahydrobenzo[b][1,4]oxazepin-3-yl)-4,5,6,7-tetrahydro-2H-indazole-3-carboxamide], under setting [4], the Ki is 13 nM. In the case of `Cc1ncn2c1N(C)C(=O)[C@H](NC(=O)c1ncn(Cc3ccccc3F)n1)CC2` [Example 580, 1-[(2-fluorophenyl)methyl]-N-[(3R)-1,9-dimethyl-2-oxo-4,5-dihydro-3H-imidazo[1,5-a][1,3]diazepin-3-yl]-1,2,4-triazole-3-carboxamide], the Ki under setting [1] is 54 nM. As for `CC[C@H]1C[C@@H](Cn2cnc(C(=O)N[C@H]3CCn4nccc4N(C)C3=O)n2)C1` [Example 502, N—((S)-4-methyl-5-oxo-5,6,7,8-tetrahydro-4H-pyrazolo[1,5-a][1,3]diazepin-6-yl)-1-(((1R,3R)-3-ethylcyclobutyl)methyl)-1H-1,2,4-triazole-3-carboxamide], under setting [1], the Ki turned out to be 27 nM.

Regarding `C[C@@H](c1ccc(F)cc1)n1cnc(C(=O)N[C@H]2CCn3nc(C4CC4)cc3N(C)C2=O)n1` (racemic) [Example 670, N-[rac-(6S)-2-cyclopropyl-4-methyl-5-oxo-7,8-dihydro-6H-pyrazolo[1,5-a][1,3]diazepin-6-yl]-1-[rac-(1S)-1-(4-fluorophenyl)ethyl]-1,2,4-triazole-3-carboxamide], the Ki under setting [1] came to 26.6 nM. `Cc1cc2n(n1)CC[C@H](NC(=O)c1nc3n(n1)CCCC3c1ccccc1)C(=O)N2C` (stereo partly drawn) [Example 554, 8-phenyl-N-[(6S)-2,4-dimethyl-5-oxo-7,8-dihydro-6H-pyrazolo[1,5-a][1,3]diazepin-6-yl]-5,6,7,8-tetrahydro-[1,2,4]triazolo[1,5-a]pyridine-2-carboxamide]: the Ki under setting [1] was determined as 330 nM. As to `CN1C(=O)[C@@H](NC(=O)c2ncn(Cc3ccccc3)n2)CCn2nccc21` [Example 334, (S)-1-benzyl-N-(4-methyl-5-oxo-5,6,7,8-tetrahydro-4H-pyrazolo[1,5-a][1,3]diazepin-6-yl)-1H-1,2,4-triazole-3-carboxamide], the Ki (Table 3, apparent Ki (Morrison tight-binding fit), 50 nM RIP1 kinase domain, 50 uM ATP, 2 hours incubation, read-out: Ki) came to 27 nM. In the case of `CC(c1ccc(F)cc1)n1cnc(C(=O)N[C@H]2CCn3nc(C4CC4)cc3N(C)C2=O)n1` (stereo in doubt) [Example 290, (S)—N-(2-cyclopropyl-4-methyl-5-oxo-5,6,7,8-tetrahydro-4H-pyrazolo[1,5-a][1,3]diazepin-6-yl)-1-(1-(4-fluorophenyl)ethyl)-1H-1,2,4-triazole-3-carboxamide], under setting [2], the Ki stood at 117 nM.

On to `CN1C(=O)[C@@H](NC(=O)c2ncn(Cc3ccccc3)n2)CCn2nc(CNCC(F)(F)F)cc21` (single isomer, unassigned) [Example 789], for which the Ki under setting [3] was determined as 68 nM.

(Values after patent US10988459B2 (priority 2015, dated 2021).)
